Where a name gives a salt, the structure may show the parent alone. Read-outs that look alike come from different tables or passages of the source.
Molecular target: T1, human histamine H4 receptor (Homo sapiens, UniProt Q9H3N8)
T1 construct: expressed in transfected cells; host or cells: SK-N-MC cells or COS7 cells, transiently transfected; cell membranes used
Assay: Binding Assay on Recombinant Human Histamine H4 Receptor
Method in brief: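 Membranes from SK-N-MC or COS7 cells transiently transfected with human H4 receptor were incubated with ³H-histamine (5-70 nM); nonspecific binding defined with 10,000 nM histamine. Bound radioactivity collected by GF/C filtration and scintillation counting; test compounds assessed by displacement of ³H-ligand binding across concentrations.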

[1] = competition binding with 3H-histamine (5 nM), membranes of SK-N-MC or COS7 cells expressing human H4 receptor, Cheng-Prusoff, KD 5 nM, average of results obtained, read-out: Ki

T1 sequence (Q9H3N8 whole entry): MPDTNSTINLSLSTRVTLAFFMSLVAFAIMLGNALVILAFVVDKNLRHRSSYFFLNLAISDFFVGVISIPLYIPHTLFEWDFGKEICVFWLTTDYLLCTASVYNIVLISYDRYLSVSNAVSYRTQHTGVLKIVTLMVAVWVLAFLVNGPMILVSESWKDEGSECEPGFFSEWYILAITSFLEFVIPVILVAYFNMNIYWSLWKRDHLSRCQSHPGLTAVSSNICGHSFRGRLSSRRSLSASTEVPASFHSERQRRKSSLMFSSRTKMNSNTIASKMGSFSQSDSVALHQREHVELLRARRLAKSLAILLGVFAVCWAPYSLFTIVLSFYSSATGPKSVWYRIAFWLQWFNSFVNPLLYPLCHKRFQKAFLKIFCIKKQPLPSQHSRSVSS

SMILES	Ki [1]	Ki
CCN[C@H]1CCCN(c2nc(N)nc3c2oc2ccc(Cl)cc23)C1 [Example 72, (S)-8-Chloro-4-(3-ethylamino-piperidin-1-yl)-benzo[4,5]furo[3,2-d]pyrimidin-2-ylamine trifluoroacetic acid salt]	343 nM	–
Nc1nc(N2CC3CCNC3C2)c2oc3ccc(F)cc3c2n1 (stereo not shown) [Example 71, 8-Fluoro-4-(hexahydro-pyrrolo[3,4-b]pyrrol-5-yl)-benzo[4,5]furo[3,2-d]pyrimidin-2-ylamine trifluoroacetic acid salt]	–	7.8 nM
COc1ccc2oc3c(N4C[C@@H]5C[C@H]4CN5)nc(N)nc3c2c1 [Example 113, (S,S)-4-(2,5-Diaza-bicyclo[2.2.1]hept-2-yl)-8-methoxy-benzo[4,5]furo[3,2-2]pyrimidin-2-ylamine trifluoroacetic acid salt]	420 nM	–
C[C@H]1CNCCN1c1nc(N)nc2c1oc1ccc(Cl)cc12 [Example 131, (S)-8-Chloro-4-(2-methyl-piperazin-1-yl)-benzo[4,5]furo[3,2-d]pyrimidin-2-ylamine trifluoroacetic acid salt]	60 nM	–
Nc1nc(N2CCNCC2)c2oc3ccc(F)c(F)c3c2n1 [Example 146, 8,9-Difluoro-4-piperazin-1-yl-benzo[4,5]furo[3,2-d]pyrimidin-2-ylamine trifluoroacetic acid salt]	1280 nM	–
Nc1nc(N2CCC[C@H](N)C2)c2oc3cccc(Cl)c3c2n1 [Example 154, (S)-4-(3-Amino-piperidin-1-yl)-9-chloro-benzo[4,5]furo[3,2-d]pyrimidin-2-ylamine trifluoroacetic acid salt]	> 10000 nM	–
Nc1nc(N2C[C@@H]3C[C@H]2CN3)c2oc3ccccc3c2n1 [Example 33, (S,S)-4-(2,5-Diaza-bicyclo[2.2.1]hept-2-yl)-benzo[4,5]furo[3,2-d]pyrimidin-2-ylamine trifluoroacetic acid salt]	200 nM	–
Nc1nc(N2C[C@@H]3C[C@H]2CN3)c2sc3ccc(Br)cc3c2n1 [Example 49, (S,S)-8-Bromo-4-(2,5-diaza-bicyclo[2.2.1]hept-2-yl)-benzo[4,5]thieno[3,2-d]pyrimidin-2-ylamine hydrochloride salt]	–	350 nM
CN1CCN(c2nc(N)nc3c2oc2cccc(C(F)(F)F)c23)CC1 [Example 91, 4-(4-Methyl-piperazin-1-yl)-9-trifluoromethyl-benzo[4,5]furo[3,2-d]pyrimidin-2-ylamine citrate salt]	50 nM	–
CCN[C@@H]1CCN(c2nc(N)nc3c2oc2ccc(Cl)cc23)C1 [Example 73, (R)-8-Chloro-4-(3-ethylamino-pyrrolidin-1-yl)-benzo[4,5]furo[3,2-d]pyrimidin-2-ylamine trifluoroacetic acid salt]	75 nM	–
COc1ccc2oc3c(N4C[C@H]5CCCN[C@H]5C4)nc(N)nc3c2c1 (relative stereo) [Example 105, (cis)-8-Methoxy-4-(octahydro-pyrrolo[3,4-b]pyridin-6-yl)-benzo[4,5]furo[3,2-d]pyrimidin-2-ylamine trifluoroacetic acid salt]	14 nM	–
C=CCNc1nc(N2CCN(C)CC2)c2oc3ccc(Cl)cc3c2n1 [Example 121, Allyl-[8-chloro-4-(4-methyl-piperazin-1-yl)-benzo[4,5]furo[3,2-d]pyrimidin-2-yl]-amine]	220 nM	–
CN[C@@H]1CCN(c2nc(N)nc3c2sc2cc(Cl)ccc23)C1 [Example 60, (R)-7-Chloro-4-(3-methylamino-pyrrolidin-1-yl)-benzo[4,5]thieno[3,2-d]pyrimidin-2-ylamine trifluoroacetic acid salt]	5.2 nM	–
Nc1nc(N2CCC[C@@H](N)C2)c2oc3ccc(Cl)cc3c2n1 [Example 28, (R)-4-(3-Amino-piperidin-1-yl)-8-chloro-benzo[4,5]furo[3,2-d]pyrimidin-2-ylamine trifluoroacetic acid salt]	110 nM	–
CC(C)N1CCN(c2nc(N)nc3c2oc2ccc(Cl)cc23)CC1 [Example 34, 8-Chloro-4-(4-isopropyl-piperazin-1-yl)-benzo[4,5]furo[3,2-d]pyrimidin-2-ylamine trifluoroacetic acid salt]	240 nM	–
CNC1CCN(c2nc(N)nc3c2oc2ccc(Cl)cc23)C1 (stereo not shown) [Example 12, 8-Chloro-4-(3-methylamino-pyrrolidin-1-yl)-benzo[4,5]furo[3,2-d]pyrimidin-2-ylamine]	0.86 nM	–
CN1CCN(c2nc(N)nc3c2oc2ccc(Cl)c(Cl)c23)CC1 [Example 101, 8,9-Dichloro-4-(4-methyl-piperazin-1-yl)-benzo[4,5]furo[3,2-d]pyrimidin-2-ylamine trifluoroacetic acid salt]	7.8 nM	–
CN1CCN(c2nc(N)nc3c2sc2cc(Br)ccc23)CC1 [Example 55, 7-Bromo-4-(4-methyl-piperazin-1-yl)-benzo[4,5]thieno[3,2-d]pyrimidin-2-ylamine trifluoroacetic acid salt]	43 nM	–
NC[C@H]1CCN(c2nc(N)nc3c2oc2ccc(Cl)cc23)C1 [Example 30, (R)-4-(3-Aminomethyl-pyrrolidin-1-yl)-8-chloro-benzo[4,5]furo[3,2-d]pyrimidin-2-ylamine trifluoroacetic acid salt]	140 nM	–

SMILES	Ki [1]	Ki
Nc1nc(N2CC3CCCNC3C2)c2sc3cc(Br)ccc3c2n1 (stereo not shown) [Example 46, 7-Bromo-4-(octahydro-pyrrolo[3,4-b]pyridin-6-yl)-benzo[4,5]thieno[3,2-d]pyrimidin-2-ylamine trifluoroacetic acid salt]	–	28 nM
COc1cccc2oc3c(N4CCNCC4)nc(N)nc3c12 [Example 86, 9-Methoxy-4-piperazin-1-yl-benzo[4,5]furo[3,2-d]pyrimidin-2-ylamine trifluoroacetic acid salt]	47 nM	–
CN1CCN(c2nc(NCCO)nc3c2oc2ccccc23)CC1 [Example 116, 2-[4-(4-Methyl-piperazin-1-yl)-benzo[4,5]furo[3,2-d]pyrimidin-2-ylamino]-ethanol]	68 nM	–
Nc1nc(N2CCCNCC2)c2oc3ccc(Cl)cc3c2n1 [Example 7, 8-Chloro-4-[1,4]diazepan-1-yl-benzo[4,5]furo[3,2-d]pyrimidin-2-ylamine trifluoroacetic acid salt]	1.1 nM	–
Nc1nc(N2CC3CCCNC3C2)c2sc3cc(C(F)(F)F)ccc3c2n1 (stereo not shown) [Example 58, 4-(Octahydro-pyrrolo[3,4-b]pyridin-6-yl)-7-trifluoromethyl-benzo[4,5]thieno[3,2-d]pyrimidin-2-ylamine trifluoroacetic acid salt]	300 nM	–
Nc1nc(N2CCC(N)C2)c2oc3c(Cl)cc(Cl)cc3c2n1 (stereo not shown) [Example 4, 4-(3-Amino-pyrrolidin-1-yl)-6,8-dichloro-benzo[4,5]furo[3,2-d]pyrimidin-2-ylamine trifluoroacetic acid salt]	31 nM	–
CN1CCN(c2nc(N)nc3c2sc2ccccc23)CC1 [Example 44, 4-(4-Methyl-piperazin-1-yl)-benzo[4,5]thieno[3,2-d]pyrimidin-2-ylamine]	29 nM	–
Nc1nc(N2CCN3CCCC3C2)c2oc3ccc(F)cc3c2n1 (stereo not shown) [Example 40, 8-Fluoro-4-(hexahydro-pyrrolo[1,2-a]pyrazin-2-yl)-benzo[4,5]furo[3,2-d]pyrimidin-2-ylamine trifluoroacetic acid salt]	–	44 nM
CN1CCN(c2nc(N)nc3c2sc2ccc(Br)cc23)CC1 [Example 50, 8-Bromo-4-(4-methyl-piperazin-1-yl)-benzo[4,5]thieno[3,2-d]pyrimidin-2-ylamine hydrochloride salt]	1 nM	–
COc1ccc2oc3c(N4CCC[C@H](N)C4)nc(N)nc3c2c1 [Example 107, (S)-4-(3-Amino-piperidin-1-yl)-8-methoxy-benzo[4,5]furo[3,2-d]pyrimidin-2-ylamine trifluoroacetic acid salt]	360 nM	–
Nc1nc(N2CCC[C@H](N)C2)c2oc3ccc(Cl)c(Cl)c3c2n1 [Example 93, (S)-4-(3-Amino-piperidin-1-yl)-8,9-dichloro-benzo[4,5]furo[3,2-d]pyrimidin-2-ylamine trifluoroacetic acid salt]	> 10000 nM	–
Nc1nc(N2CCNCC2)c2oc3cccc(Cl)c3c2n1 [Example 153, 9-Chloro-4-piperazin-1-yl-benzo[4,5]furo[3,2-d]pyrimidin-2-ylamine trifluoroacetic acid salt]	1030 nM	–
Nc1nc(N2CCN3CCCCC3C2)c2oc3ccccc3c2n1 (stereo not shown) [Example 36, 4-(Octahydro-pyrido[1,2-a]pyrazin-2-yl)-benzo[4,5]furo[3,2-d]pyrimidin-2-ylamine trifluoroacetic acid salt]	680 nM	–
CN[C@@H]1CCN(c2nc(N)nc3c2oc2ncc(Cl)cc23)C1 [Example 109, (R)-3-Chloro-8-(3-methylamino-pyrrolidin-1-yl)-9-oxa-1,5,7-triaza-fluoren-6-ylamine]	260 nM	–
Nc1nc(N2CCNCC2)c2oc3ccc(Cl)cc3c2n1 [Example 14, 8-Chloro-4-piperazin-1-yl-benzo[4,5]furo[3,2-d]pyrimidin-2-ylamine trifluoroacetic acid salt]	1.1 nM	–
CN[C@@H]1CCN(c2nc(N)nc3c2oc2ccc(F)cc23)C1 [Example 39, (R)-8-Fluoro-4-(3-methylamino-pyrrolidin-1-yl)-benzo[4,5]furo[3,2-d]pyrimidin-2-ylamine trifluoroacetic acid salt]	2.3 nM	–
CN1CCN(c2nc(NCCCN)nc3c2oc2ccc(Cl)cc23)CC1 [Example 122, N^1-[8-Chloro-4-(4-methyl-piperazin-1-yl)-benzo[4,5]furo[3,2-d]pyrimidin-2-yl]-propane-1,3-diamine]	300 nM	–
Nc1nc(N2C[C@@H]3CCCN[C@@H]3C2)c2oc3ccc(Cl)cc3c2n1 [Example 83, 8-Chloro-4-(octahydro-pyrrolo[3,4-b]pyridin-6-yl)-benzo[4,5]furo[3,2-d]pyrimidin-2-ylamine citrate salt]	–	4.7 nM

Reference: patent publication US8030321B2, “Benzofuro- and benzothienopyrimidine modulators of the histamine H4 receptor” (Janssen Pharmaceutica, NV, priority 2006, dated 2011)
